Source: patent US8053553B2, “Targeting host proteinases as a therapeutic strategy against viral and bacterial pathogens” (Socpra Sciences Sante Et Humaines, priority 2007, dated 2011)
Non-standard residues stand in square brackets, D forms with d. Residues, ends and D or L forms follow the SMILES beside them. Sar = CNCC(=O)O

target: T1, furin (Homo sapiens, UniProt P09958); test: biochemical; conditions: furin, Pyr-RTKR-AMC substrate; N-terminal deletions (Example 2, Table 6); read-out: Ki
T1 construct: made in house; host or cells: Drosophila S2 cells (Invitrogen expression system)
T1 sequence (P09958 108-794 limits assumed): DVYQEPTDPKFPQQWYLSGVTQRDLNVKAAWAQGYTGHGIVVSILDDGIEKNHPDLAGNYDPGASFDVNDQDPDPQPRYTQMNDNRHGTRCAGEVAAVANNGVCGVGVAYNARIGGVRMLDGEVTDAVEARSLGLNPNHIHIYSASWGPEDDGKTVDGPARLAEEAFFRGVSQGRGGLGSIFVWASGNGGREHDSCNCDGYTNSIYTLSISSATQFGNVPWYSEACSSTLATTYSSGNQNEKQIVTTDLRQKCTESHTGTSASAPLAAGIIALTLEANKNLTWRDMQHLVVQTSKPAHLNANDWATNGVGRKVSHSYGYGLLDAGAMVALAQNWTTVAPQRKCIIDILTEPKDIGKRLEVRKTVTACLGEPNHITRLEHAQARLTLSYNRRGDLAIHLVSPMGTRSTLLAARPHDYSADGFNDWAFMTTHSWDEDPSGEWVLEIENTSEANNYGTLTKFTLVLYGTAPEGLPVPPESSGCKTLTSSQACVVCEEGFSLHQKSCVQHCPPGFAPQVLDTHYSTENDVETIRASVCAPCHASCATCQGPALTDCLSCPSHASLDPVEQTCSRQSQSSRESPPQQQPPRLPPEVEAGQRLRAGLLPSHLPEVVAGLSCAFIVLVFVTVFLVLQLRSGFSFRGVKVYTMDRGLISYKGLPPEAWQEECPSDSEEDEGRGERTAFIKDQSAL

SMILES	Ki [nM]
C[C@@H](O)[C@H](NC(=O)[C@H](CCCNC(=N)N)NC(=O)[C@H](CCCCN)NC(=O)[C@H](CCCCN)NC(=O)[C@@H](N)CCCNC(=N)N)C(N)=O [RKKRT] (H-RKKRT-NH2)	1000

same assay, conditions: furin, Pyr-RTKR-AMC substrate; alanine scanning mutagenesis of the H5 furin cleavage sequence (Table 2); read-out: Ki

SMILES	Ki [nM]
CC(C)[C@H](NC(=O)[C@H](CCCNC(=N)N)NC(=O)[C@H](CCCCN)NC(=O)[C@H](CCCCN)NC(=O)[C@H](CCCNC(=N)N)NC(=O)[C@H](CCCNC(=N)N)NC(=O)[C@H](CCCNC(=N)N)NC(=O)[C@H](CCC(=O)O)NC(=O)[C@H](CCCNC(=N)N)NC(=O)[C@H](C)NC(=O)[C@H](C)N)C(N)=O (H-AARERRRKKRV-NH2)	> 100
C[C@H](NC(=O)[C@H](C)NC(=O)[C@@H]1CCCN1C(=O)[C@@H](N)[C@@H](C)O)C(=O)N[C@@H](C)C(=O)N[C@@H](CCCNC(=N)N)C(=O)N[C@@H](CCCNC(=N)N)C(=O)N[C@@H](CCCCN)C(=O)N[C@@H](CCCCN)C(=O)N[C@@H](CCCNC(=N)N)C(=O)NCC(N)=O (H-TPAAARRKKRG-NH2)	> 100
C[C@H](NC(=O)[C@H](CCCNC(=N)N)NC(=O)[C@H](CCCNC(=N)N)NC(=O)[C@H](CCC(=O)O)NC(=O)[C@H](CCCNC(=N)N)NC(=O)[C@@H]1CCCN1C(=O)[C@@H](N)[C@@H](C)O)C(=O)N[C@@H](CCCCN)C(=O)N[C@@H](CCCCN)C(=O)N[C@@H](CCCNC(=N)N)C(N)=O (H-TPRERRAKKR-NH2)	> 100
CC(C)[C@H](NC(=O)[C@H](CCCNC(=N)N)NC(=O)[C@H](CCCCN)NC(=O)[C@H](CCCCN)NC(=O)[C@H](CCCNC(=N)N)NC(=O)[C@H](CCCNC(=N)N)NC(=O)[C@H](C)NC(=O)[C@H](C)NC(=O)[C@H](CCCNC(=N)N)NC(=O)[C@@H]1CCCN1C(=O)[C@@H](N)[C@@H](C)O)C(N)=O (H-TPRAARRKKRV-NH2)	> 100
C[C@H](NC(=O)[C@H](C)NC(=O)[C@H](CCC(=O)O)NC(=O)[C@H](CCCNC(=N)N)NC(=O)[C@@H]1CCCN1C(=O)[C@@H](N)[C@@H](C)O)C(=O)N[C@@H](C)C(=O)N[C@@H](CCCCN)C(=O)N[C@@H](CCCCN)C(=O)N[C@@H](CCCNC(=N)N)C(N)=O (H-TPREAAAKKR-NH2)	> 100
CC(C)[C@H](NC(=O)[C@H](C)NC(=O)[C@H](C)NC(=O)[C@H](CCCCN)NC(=O)[C@H](CCCNC(=N)N)NC(=O)[C@H](CCCNC(=N)N)NC(=O)[C@H](CCCNC(=N)N)NC(=O)[C@H](CCC(=O)O)NC(=O)[C@H](CCCNC(=N)N)NC(=O)[C@@H]1CCCN1C(=O)[C@@H](N)[C@@H](C)O)C(N)=O (H-TPRERRRKAAV-NH2)	> 100
CC(C)[C@H](NC(=O)[C@H](CCCNC(=N)N)NC(=O)[C@H](CCCCN)NC(=O)[C@H](CCCCN)NC(=O)[C@H](CCCNC(=N)N)NC(=O)[C@H](CCCNC(=N)N)NC(=O)[C@H](CCCNC(=N)N)NC(=O)[C@H](CCC(=O)O)NC(=O)[C@H](CCCNC(=N)N)NC(=O)[C@H](C)NC(=O)[C@@H](N)[C@@H](C)O)C(N)=O (H-TARERRRKKRV-NH2)	> 100
C[C@H](NC(=O)[C@H](C)NC(=O)[C@@H]1CCCN1C(=O)[C@@H](N)[C@@H](C)O)C(=O)N[C@@H](CCCNC(=N)N)C(=O)N[C@@H](CCCNC(=N)N)C(=O)N[C@@H](CCCNC(=N)N)C(=O)N[C@@H](CCCCN)C(=O)N[C@@H](CCCCN)C(=O)N[C@@H](CCCNC(=N)N)C(=O)N(C)CC(N)=O (H-TPAARRRKKR[Sar]-NH2)	> 100
C[C@@H](O)[C@H](N)C(=O)N1CCC[C@H]1C(=O)N[C@@H](CCCNC(=N)N)C(=O)N[C@@H](CCC(=O)O)C(=O)N[C@@H](CCCNC(=N)N)C(=O)N[C@@H](CCCNC(=N)N)C(=O)N[C@@H](CCCNC(=N)N)C(=O)N[C@@H](CCCCN)C(=O)N[C@@H](CCCCN)C(=O)N[C@@H](CCCNC(=N)N)C(N)=O (H-TPRERRRKKR-NH2)	> 100
CC(C)[C@H](NC(=O)[C@H](CCCNC(=N)N)NC(=O)[C@H](CCCCN)NC(=O)[C@H](CCCCN)NC(=O)[C@H](C)NC(=O)[C@H](C)NC(=O)[C@H](C)NC(=O)[C@H](CCC(=O)O)NC(=O)[C@H](CCCNC(=N)N)NC(=O)[C@@H]1CCCN1C(=O)[C@@H](N)[C@@H](C)O)C(N)=O (H-TPREAAAKKRV-NH2)	> 100
C[C@H](NC(=O)[C@H](C)NC(=O)[C@@H]1CCCN1C(=O)[C@@H](N)[C@@H](C)O)C(=O)N[C@@H](CCCNC(=N)N)C(=O)N[C@@H](CCCNC(=N)N)C(=O)N[C@@H](CCCNC(=N)N)C(=O)N[C@@H](CCCCN)C(=O)N[C@@H](CCCCN)C(=O)N[C@@H](CCCNC(=N)N)C(N)=O (H-TPAARRRKKR-NH2)	> 100
CC(C)[C@H](NC(=O)[C@H](CCCNC(=N)N)NC(=O)[C@H](CCCCN)NC(=O)[C@H](CCCCN)NC(=O)[C@H](CCCNC(=N)N)NC(=O)[C@H](CCCNC(=N)N)NC(=O)[C@H](CCCNC(=N)N)NC(=O)[C@H](CCC(=O)O)NC(=O)[C@H](CCCNC(=N)N)NC(=O)[C@@H]1CCCN1C(=O)[C@H](C)N)C(N)=O (H-APRERRRKKRV-NH2)	> 100
CC(C)[C@H](NC(=O)[C@H](CCCNC(=N)N)NC(=O)[C@H](CCCCN)NC(=O)[C@H](CCCCN)NC(=O)[C@H](CCCNC(=N)N)NC(=O)[C@H](C)NC(=O)[C@H](C)NC(=O)[C@H](CCC(=O)O)NC(=O)[C@H](CCCNC(=N)N)NC(=O)[C@@H]1CCCN1C(=O)[C@@H](N)[C@@H](C)O)C(N)=O (H-TPREAARKKRV-NH2)	> 100
C[C@H](NC(=O)[C@H](CCCNC(=N)N)NC(=O)[C@H](CCC(=O)O)NC(=O)[C@H](CCCNC(=N)N)NC(=O)[C@@H]1CCCN1C(=O)[C@@H](N)[C@@H](C)O)C(=O)N[C@@H](CCCNC(=N)N)C(=O)N[C@@H](CCCCN)C(=O)N[C@@H](CCCCN)C(=O)N[C@@H](CCCNC(=N)N)C(N)=O (H-TPRERARKKR-NH2)	> 100
C[C@H](NC(=O)[C@H](CCCCN)NC(=O)[C@H](CCCCN)NC(=O)[C@H](CCCNC(=N)N)NC(=O)[C@H](CCCNC(=N)N)NC(=O)[C@H](CCCNC(=N)N)NC(=O)[C@H](CCC(=O)O)NC(=O)[C@H](CCCNC(=N)N)NC(=O)[C@@H]1CCCN1C(=O)[C@@H](N)[C@@H](C)O)C(N)=O (H-TPRERRRKKA-NH2)	> 100

same assay, conditions: furin, Pyr-RTKR-AMC substrate; optimization of the inhibitory peptides (Table 3); read-out: Ki

SMILES	Ki [nM]
C[C@@H](O)[C@H](N)C(=O)N1CCC[C@H]1C(=O)N[C@@H](CCC(N)=O)C(=O)N[C@@H](CCCNC(=N)N)C(=O)NCCCCCC(=O)N[C@@H](CCCNC(=N)N)C(=O)N[C@@H](CCCNC(=N)N)C(=O)N[C@@H](CCCNC(=N)N)C(=O)N[C@@H](CCCCN)C(=O)N[C@@H](CCCCN)C(=O)N[C@@H](CCCNC(=N)N)C(=O)NCC(N)=O [TPQR2RRRKKRG]	> 100
C[C@H](NC(=O)[C@H](CCCNC(=N)N)NC(=O)[C@H](CCC(N)=O)NC(=O)[C@@H]1CCCN1C(=O)[C@@H](N)[C@@H](C)O)C(=O)N[C@@H](CCCNC(=N)N)C(=O)N[C@@H](CCCNC(=N)N)C(=O)N[C@@H](CCCNC(=N)N)C(=O)N[C@@H](CCCCN)C(=O)N[C@@H](CCCCN)C(=O)N[C@@H](CCCNC(=N)N)C(=O)N[C@@H](Cc1c[nH]cn1)C(N)=O (H-TPQRARRRKKRH-NH2)	> 100
CC(C)[C@H](NC(=O)[C@H](CCCNC(=N)N)NC(=O)[C@H](CCC(N)=O)NC(=O)[C@@H]1CCCN1C(=O)[C@@H](N)[C@@H](C)O)C(=O)N[C@@H](CCCNC(=N)N)C(=O)N[C@@H](CCCNC(=N)N)C(=O)N[C@@H](CCCNC(=N)N)C(=O)N[C@@H](CCCCN)C(=O)N[C@@H](CCCCN)C(=O)N[C@@H](CCCNC(=N)N)C(=O)NCC(N)=O (H-TPQRVRRRKKRG-NH2)	> 100
C[C@@H](O)[C@H](N)C(=O)N1CCC[C@H]1C(=O)N[C@@H](CCC(N)=O)C(=O)N[C@@H](CCCNC(=N)N)C(=O)N[C@@H](CCC(N)=O)C(=O)N[C@@H](CCCNC(=N)N)C(=O)N[C@@H](CCCNC(=N)N)C(=O)N[C@@H](CCCNC(=N)N)C(=O)N[C@@H](CCCCN)C(=O)N[C@@H](CCCCN)C(=O)N[C@@H](CCCNC(=N)N)C(=O)NCC(N)=O (H-TPQRQRRRKKRG-NH2)	> 100
C[C@@H](O)[C@H](N)C(=O)N1CCC[C@H]1C(=O)N[C@@H](CCC(N)=O)C(=O)N[C@@H](CCCNC(=N)N)C(=O)N[C@H](CCCNC(=N)N)C(=O)N[C@@H](CCCNC(=N)N)C(=O)N[C@@H](CCCNC(=N)N)C(=O)N[C@@H](CCCNC(=N)N)C(=O)N[C@@H](CCCCN)C(=O)N[C@@H](CCCCN)C(=O)N[C@@H](CCCNC(=N)N)C(=O)NCC(N)=O [TPQRrRRRKKRG]	> 100
C[C@H](NC(=O)[C@H](CCCNC(=N)N)NC(=O)[C@H](CCC(N)=O)NC(=O)[C@@H]1CCCN1C(=O)[C@@H](N)[C@@H](C)O)C(=O)N[C@@H](CCCNC(=N)N)C(=O)N[C@@H](CCCNC(=N)N)C(=O)N[C@@H](CCCNC(=N)N)C(=O)N[C@@H](CCCCN)C(=O)N[C@@H](CCCCN)C(=O)N[C@@H](CCCNC(=N)N)C(=O)N[C@@H](CC(=O)O)C(N)=O (H-TPQRARRRKKRD-NH2)	50
C[C@@H](O)[C@H](N)C(=O)N1CCC[C@H]1C(=O)N[C@@H](CCC(N)=O)C(=O)N[C@@H](CCCNC(=N)N)C(=O)N[C@@H](CC(N)=O)C(=O)N[C@@H](CCCNC(=N)N)C(=O)N[C@@H](CCCNC(=N)N)C(=O)N[C@@H](CCCNC(=N)N)C(=O)N[C@@H](CCCCN)C(=O)N[C@@H](CCCCN)C(=O)N[C@@H](CCCNC(=N)N)C(=O)NCC(N)=O (H-TPQRNRRRKKRG-NH2)	> 100
C[C@H](NC(=O)[C@H](CCCNC(=N)N)NC(=O)[C@H](CCC(N)=O)NC(=O)[C@@H]1CCCN1C(=O)[C@@H](N)[C@@H](C)O)C(=O)N[C@@H](CCCNC(=N)N)C(=O)N[C@@H](CCCNC(=N)N)C(=O)N[C@@H](CCCNC(=N)N)C(=O)N[C@@H](CCCCN)C(=O)N[C@@H](CCCCN)C(=O)N[C@@H](CCCNC(=N)N)C(=O)N[C@@H](CCCCN)C(N)=O (H-TPQRARRRKKRK-NH2)	> 100
CC(C)[C@H](NC(=O)[C@H](CCCNC(=N)N)NC(=O)[C@H](CCCCN)NC(=O)[C@H](CCCCN)NC(=O)[C@H](CCCNC(=N)N)NC(=O)[C@H](CCCNC(=N)N)NC(=O)[C@H](CCCNC(=N)N)NC(=O)[C@H](C)NC(=O)[C@H](CCCNC(=N)N)NC(=O)[C@H](CCC(N)=O)NC(=O)[C@@H]1CCCN1C(=O)[C@@H](N)[C@@H](C)O)C(N)=O (H-TPQRARRRKKRV-NH2)	48
C[C@@H](O)[C@H](N)C(=O)N1CCC[C@H]1C(=O)N[C@@H](CCC(N)=O)C(=O)N[C@@H](CCCNC(=N)N)C(=O)N[C@@H](CCCCN)C(=O)N[C@@H](CCCNC(=N)N)C(=O)N[C@@H](CCCNC(=N)N)C(=O)N[C@@H](CCCNC(=N)N)C(=O)N[C@@H](CCCCN)C(=O)N[C@@H](CCCCN)C(=O)N[C@@H](CCCNC(=N)N)C(=O)NCC(N)=O	> 100
